Molecular target: T1, human recombinant adrenergic α2B receptor (Homo sapiens, UniProt P18089)
T1 construct: expressed in transfected cells; host or cells: CHO-K1
T1 sequence (P18089 1-450): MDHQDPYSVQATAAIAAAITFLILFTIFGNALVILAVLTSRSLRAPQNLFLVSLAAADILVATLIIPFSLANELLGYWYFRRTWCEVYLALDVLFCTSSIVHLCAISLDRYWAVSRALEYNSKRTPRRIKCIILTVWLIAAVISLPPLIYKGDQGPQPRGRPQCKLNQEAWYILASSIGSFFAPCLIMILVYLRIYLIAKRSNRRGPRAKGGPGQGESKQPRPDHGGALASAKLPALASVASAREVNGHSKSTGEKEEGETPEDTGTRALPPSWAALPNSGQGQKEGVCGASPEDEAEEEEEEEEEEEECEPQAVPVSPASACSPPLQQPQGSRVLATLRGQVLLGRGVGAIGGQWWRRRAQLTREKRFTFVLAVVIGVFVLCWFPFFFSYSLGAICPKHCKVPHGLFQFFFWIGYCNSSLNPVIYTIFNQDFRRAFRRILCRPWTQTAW
Test: Radioligand binding, adrenergic α2B receptor ([3H]Rauwolscine)
Conditions: CHO-K1 cells; for inhibition at 0.03 µM / inhibition at 0.1 µM: read-out: Percentage inhibition of ligand binding, Adrenergic α2B
Method in brief: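 Percent inhibition of specific [3H]Rauwolscine (2.5 nM) binding, compounds at ≤1 μM, 1% DMSO vehicle, 10 μM prazosin defining nonspecific. Receptor: human α2B expressed in CHO-K1 cells, 60 min incubation at 25 °C in Tris-HCl pH 7.4 buffer (MgCl2, EDTA, BSA); filtered, washed, counted.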

Row | Compound | inhibition at 0.03 µM (0.03 μM compound) [%] | Percentage inhibition of ligand binding, Adrenergic α2B (0.1 μM compound) [%] | inhibition at 0.1 µM (0.1 μM compound) [%] | Percentage inhibition of ligand binding, Adrenergic α2B (0.03 μM compound) [%]
1 | Cc1ccc2c(c1)c1c(n2-c2ccccc2-c2ccc3c(ccn3C)c2)CCN(C)C1 [Compound No. 85, 2,8-dimethyl-5-(2-(1-methyl-1H-indol-5-yl)phenyl)-2,3,4,5-tetrahydro-1H-pyrido[4,3-b]indole] | 89 | 102 | 98 | –
2 | COc1ccc(-c2cscc2-n2c3c(c4cc(C)ccc42)CN(C)CC3)cc1 [Compound 37] | 104 | 104 | 96 | –
3 | Cc1ccc2c(c1)c1c(n2-c2cscc2-c2ccc3cnccc3c2)CCN(C)C1 [Compound No. 68] | 71 | 93 | 86 | –
4 | Cc1ccc2c(c1)c1c(n2-c2cscc2-c2ccc(C)s2)CCN(C)C1 [Compound No. 79] | 102 | – | 104 | –
5 | Cc1csc(-c2cscc2-n2c3c(c4cc(C)ccc42)CN(C)CC3)c1 [Compound 50] | 97 | – | 103 | –
6 | Cc1ccc2c(c1)c1c(n2-c2cscc2-c2ccc(S(C)(=O)=O)cc2)CCN(C)C1 [Compound No. 76] | 89 | 100 | 94 | –
7 | Cc1ccc2c(c1)c1c(n2-c2cscc2-c2ccc3c(ccn3C)c2)CCN(C)C1 [Compound 33] | 100 | – | 95 | 102
8 | Cc1ccc2c(c1)c1c(n2-c2ccccc2-c2cccn2C)CCN(C)C1 [Compound No. 100, 2,8-dimethyl-5-(2-(1-methyl-1H-pyrrol-2-yl)phenyl)-2,3,4,5-tetrahydro-1H-pyrido[4,3-b]indole] | 103 | 109 | 99 | –

— patent US20140155384A1, “COMPOUNDS AND METHODS OF TREATING DIABETES” (Medivation Technologies, Inc., priority 2011, published 2014)
